Source: patent US8563578B2, “Antitumor properties of NO modified protease inhibitors” (Onconox APS, priority 2008, dated 2013)

Tests used:
B16 cells [1] = assay: MBP expression by cell-based ELISA, B16; design: species or system mouse; conditions: 18.8 μM, 24 h
Text: A slightly modified method for cell-based ELISA (cELISA) by Versteeg (Versteed et al., 2000) was used to measure the expression of galactocerebroside, glial fibrilar acidic protein (GFAP), myelin basic protein (MBP), cyclin D3, p53 and p-AKT. Briefly, at the end of cultivation period cells were fixed in 4% paraformaldehyde, endogenous peroxydase was quenched with 1% H2O2 in PBS containing 0.1% Triton X-100 (PBST), and unspecific binding of antibodies blocked with PBST solution containing 10% FCS. […] The absorbance at 450 nm was measured in an automated microplate reader 15 min after incubation with peroxydase substrate TMB and subsequently to addition of 0.1 M HCl. To facilitate comparison between treatments, the obtained absorbances were corrected for the cell number that was determined by crystal violet staining, as described in the original protocol. […]
FIG. 5. […] Cell morphology was assessed by light microscopy (A). Markers of cell differentiation of C6 and B16 cells, galactocerebroside, GFAP and MBP were determined by cELISA and melanin and tyrosinase activity were determined as described in material and methods (B). Cyclin D3 and p53 expression were evaluated by cELISA (C, upper panels), immunocytochemistry (C, middle panel) and Western blot (C, lower panel). […]

B16 cells [2] = assay: Cyclin D3 and p53 expression (cELISA, immunocytochemistry, Western blot), B16; type: cell-based, mouse; conditions: 18.8 μM, 24 h (Western blot 4 h)
Text: A slightly modified method for cell-based ELISA (cELISA) by Versteeg (Versteed et al., 2000) was used to measure the expression of galactocerebroside, glial fibrilar acidic protein (GFAP), myelin basic protein (MBP), cyclin D3, p53 and p-AKT. Briefly, at the end of cultivation period cells were fixed in 4% paraformaldehyde, endogenous peroxydase was quenched with 1% H2O2 in PBS containing 0.1% Triton X-100 (PBST), and unspecific binding of antibodies blocked with PBST solution containing 10% FCS. […] The absorbance at 450 nm was measured in an automated microplate reader 15 min after incubation with peroxydase substrate TMB and subsequently to addition of 0.1 M HCl. To facilitate comparison between treatments, the obtained absorbances were corrected for the cell number that was determined by crystal violet staining, as described in the original protocol.
The detection of expression of cyclin D3 and p53 expression was performed by the immunocytochemical procedure as previously described (Mijatovic et al, 2005). The cells were cultivated in glass chamber-slides (3×10^4 cells/well) and cyclin D3 and p53 expression were detected with specific antibodies against cyclin D3 (1:1000, Santa Cruz Biotechnology, Santa Cruz, Calif.) and p53 (1:500, Santa Cruz Biotechnology, Santa Cruz, Calif.). […]

CCR% e CXCR4 strains = assay: In-vitro anti-HIV activity; type: cell-based
C6 cells = assay: Cell proliferation by CFSE staining, C6; type: cell-based, rat; conditions: 18.8 μM, 48 h, about 90% of control cells divided
Method: Rate of cell proliferation was verified by flow cytometric analysis of cells labelled with CFSE (Kang et al. 2005). CFSE dye is stable in cytoplasm more than 15 generations and the intensity of fluorescence decline after each division. Briefly, detached cells were stained with 1.5 μM CFSE for the 15 min at 37° C., washed 2 times, seeded in 6-well plates at 2×10^5 cells/well and then exposed to drugs. After 24 and 48 h of cultivation cells were trypsinized and washed 2 times. Finally, the cells were resuspended in PBS and analyzed by flow cytometry. Green fluorescence emission was measured with a FACSCalibur (BD, Heidelberg, Germany) and analyzed using CellQuest software.
FIG. 4. […] Results are calculated as indicated in materials and methods and presented as mean±SD from representative of three independent experiment (*p <0.05). […] After 24 h of cultivation without or with drugs, cells were stained with AO orange (B) or PI (C) and analyzed by flow cytometry. The data are presented as mean±SD from three independent experiments. *p<0.05, refers to untreated cultures. […] Cells were incubated with 18.8 μM of Sag or Saq-NO2 for 24 h. After that, the drugs were either removed or not from the cells and incubated for additional 24 h. Cell viability was determined by CV test after 24 and 48 h of incubation (right panels). […]

SMILES: CC(C)(C)NC(=O)[C@@H]1C[C@@H]2CCCC[C@@H]2CN1C[C@@H](O[N+](=O)[O-])[C@H](Cc1ccccc1)NC(=O)[C@H](CC(N)=O)NC(=O)c1ccc2ccccc2n1 [Saq-NO2, nitric ester of Saquinavir]
- MBP expression (B16 cells [1]): mild elevation
- cyclin D3 expression (B16 cells [2]): not considerably changed
- p53 expression (B16 cells [2]): much higher extent than Saq
- in-vitro anti-HIV activity compared with Saquinavir (CCR% e CXCR4 strains): at least as high as that of Saquinavir
- cells able to proliferate (divided) (C6 cells): less than 10%
